From PubChem BioAssay (NCI)
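All cell lines were grown in 96-well plates and treated with compound for 48 hours. GI50 = concentration required for 50% inhibition of growth. TGI is the concentration that stops growth completely.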

Assays:
Assay in all cases: DTP human tumour cell line panel, 48 h
[1] = test system: UACC-257 melanoma
[2] = test system: OVCAR-4 ovarian
[3] = test system: RPMI-8226 leukemia
[4] = test system: SW-620 colon
[5] = test system: SK-MEL-5 melanoma
[6] = test system: NCI/ADR-RES ovarian
[7] = test system: CCRF-CEM leukemia
[8] = test system: HS 578T breast
[9] = test system: MDA-MB-435
[10] = test system: HT29 colon
[11] = test system: HCT-15 colon
[12] = test system: MCF7 breast
[13] = test system: SK-MEL-2 melanoma
[14] = test system: SN12C renal
[15] = test system: HCC-2998 colon
[16] = test system: HOP-62 NSCLC
[17] = test system: NCI-H522 lung
[18] = test system: MALME-3M melanoma
[19] = test system: NCI-H460 lung
[20] = test system: OVCAR-8 ovarian
[21] = test system: HL-60(TB) leukemia
[22] = test system: M14 melanoma
[23] = test system: NCI-H23 lung
[24] = test system: SK-MEL-28 melanoma
[25] = test system: SR leukemia
[26] = test system: SF-295 CNS
[27] = test system: HCT-116 colon
[28] = test system: SF-268 CNS
[29] = test system: A549 NSCLC
[30] = test system: A498 renal
[31] = test system: RXF 393 renal
[32] = test system: UO-31 renal
[33] = test system: SNB-75 CNS
[34] = test system: KM12 colon
[35] = test system: IGROV1 ovarian
[36] = test system: SNB-19 CNS
[37] = test system: OVCAR-3 ovarian
[38] = test system: SK-OV-3 ovarian
[39] = test system: U251 CNS
[40] = test system: UACC-62 melanoma
[41] = test system: HOP-92 NSCLC
[42] = test system: SF-539 CNS
[43] = test system: T-47D breast
[44] = test system: MDA-MB-231 breast
[45] = test system: BT-549 breast
[46] = test system: 786-0 renal
[47] = test system: OVCAR-5 ovarian
[48] = test system: DU-145 prostate
[49] = test system: TK-10 renal
[50] = test system: LOX IMVI melanoma
[51] = test system: MOLT-4 leukemia
[52] = test system: COLO 205 colon
[53] = test system: PC-3 prostate
[54] = test system: NCI-H226 lung
[55] = test system: ACHN renal
[56] = test system: EKVX NSCLC
[57] = test system: CAKI-1 renal
[58] = test system: K-562 leukemia

COc1cc(-c2cc(-c3ccc(Nc4nc(Nc5ccc(Cl)cc5)nc(Nc5ccc(Cl)cc5)n4)cc3)no2)cc(OC)c1OC
GI50 [1]: 23.5 µM | TGI [1]: > 100 µM | GI50 [2]: 57.1 µM | TGI [2]: > 100 µM | GI50 [3]: 1.75 µM | TGI [3]: > 100 µM | GI50 [4]: 19.9 µM | TGI [4]: > 100 µM | GI50 [5]: 4.47 µM | TGI [5]: 58.1 µM | GI50 [6]: 11.3 µM | TGI [6]: > 100 µM | GI50 [7]: 2.16 µM | TGI [7]: 11.9 µM | GI50 [8]: 1.71 µM | TGI [8]: > 100 µM | GI50 [9]: 7.15 µM | TGI [9]: > 100 µM | GI50 [10]: 16.9 µM | TGI [10]: > 100 µM | GI50 [11]: 18.9 µM | TGI [11]: > 100 µM | GI50 [12]: 3 µM | TGI [12]: 69.7 µM | GI50 [13]: 5.04 µM | TGI [13]: > 100 µM | GI50 [14]: 39.1 µM | TGI [14]: > 100 µM | GI50 [15]: 13.1 µM | TGI [15]: 91.3 µM | GI50 [16]: 11 µM | TGI [16]: 84.2 µM | GI50 [17]: 2.89 µM | TGI [17]: > 100 µM | GI50 [18]: 50.3 µM | TGI [18]: > 100 µM | GI50 [19]: 6.79 µM | TGI [19]: 46.4 µM | GI50 [20]: 36 µM | TGI [20]: > 100 µM | GI50 [21]: 2.32 µM | TGI [21]: 55.5 µM | GI50 [22]: 7.11 µM | TGI [22]: > 100 µM | GI50 [23]: 18 µM | TGI [23]: > 100 µM | GI50 [24]: 14.4 µM | TGI [24]: > 100 µM | GI50 [25]: 1.92 µM | TGI [25]: 21.6 µM | GI50 [26]: 35.1 µM | TGI [26]: > 100 µM | GI50 [27]: 4.31 µM | TGI [27]: 42.9 µM | GI50 [28]: 6.05 µM | TGI [28]: > 100 µM | GI50 [29]: 13.5 µM | TGI [29]: > 100 µM | GI50 [30]: 2.71 µM | TGI [30]: > 100 µM | GI50 [31]: 0.816 µM | TGI [31]: 7.08 µM | GI50 [32]: 6 µM | TGI [32]: > 100 µM | GI50 [33]: 12.7 µM | TGI [33]: > 100 µM | GI50 [34]: 14.2 µM | TGI [34]: > 100 µM | GI50 [35]: 3.22 µM | TGI [35]: > 100 µM | GI50 [36]: 26.8 µM | TGI [36]: > 100 µM | GI50 [37]: 6.68 µM | TGI [37]: 88.9 µM | GI50 [38]: > 100 µM | TGI [38]: > 100 µM | GI50 [39]: 11.4 µM | TGI [39]: > 100 µM | GI50 [40]: 71.7 µM | TGI [40]: > 100 µM | GI50 [41]: 0.0166 µM | TGI [41]: 0.32 µM | GI50 [42]: 9.05 µM | TGI [42]: > 100 µM | GI50 [43]: 3.15 µM | TGI [43]: > 100 µM | GI50 [44]: 5.15 µM | TGI [44]: > 100 µM | GI50 [45]: 13.9 µM | TGI [45]: > 100 µM | GI50 [46]: 3.6 µM | TGI [46]: 20.1 µM | GI50 [47]: 27.3 µM | TGI [47]: > 100 µM | GI50 [48]: 7.08 µM | TGI [48]: > 100 µM | GI50 [49]: 25.4 µM | TGI [49]: > 100 µM | GI50 [50]: 11.4 µM | TGI [50]: > 100 µM | GI50 [51]: 1.23 µM | TGI [51]: 23.7 µM | GI50 [52]: 2.26 µM | TGI [52]: 21.3 µM | GI50 [53]: 0.565 µM | TGI [53]: 9.19 µM | GI50 [54]: 27 µM | TGI [54]: > 100 µM | GI50 [55]: 14.9 µM | TGI [55]: > 100 µM | GI50 [56]: 24.9 µM | TGI [56]: > 100 µM | GI50 [57]: 5.53 µM | TGI [57]: > 100 µM | GI50 [58]: 1.98 µM | TGI [58]: 19.4 µM
